Source: article PMC7669869, “AdipoR1/AdipoR2 dual agonist recovers nonalcoholic steatohepatitis and related fibrosis via endoplasmic reticulum-mitochondria axis” (Nature Communications, 2020)
“Also recorded” adds a separate entry of the source. Non-standard residues stand in square brackets, D forms with d. Residues, ends and D or L forms follow the SMILES beside them. Nva = CCC[C@H](N)C(=O)O

Experiments:
[1] = system: αSMA expression in LX2 cells; assay: Western blotting for αSMA expression in LX2; format: cell-based, human; details: LX2, 200 μM peptide, 48 h; western blot; in words
Method: Hepatoma carcinoma cell line HepG2 and human hepatic activated stellate cell line LX2 used in this study were purchased from Type Culture Collection of the Chinese Academy of Sciences (Shanghai, China). Cells were cultured in Dulbecco’s modified Eagle’s medium (DMEM) with 10% fetal bovine serum (FBS), supplemented with 1% penicillin–streptomycin (ThermoFisher Scientific, USA) at 37 °C in a humidified atmosphere of 5% CO2. In PA (Sigma, USA) induced lipid accumulation cell model, HepG2 cells were seeded into a 6-well plate at 5E5 cells per well. 0.25 mM PA and/or 200 μM candidate peptides were co-incubated with cells for 24 h. Then Oil Red O staining was performed to evaluate the accumulation of lipid droplets. BSA (Sigma, USA) was used in this experiment as the negative control. […]
Total protein was isolated from cells or liver samples using RIPA lysis buffer (50.0 mM Tris-HCl (pH = 8.0), 150.0 mM NaCl, 0.02% NaN3, 0.1% SDS, 1% NP-40, 0.5% deoxysodium cholate, 1 mM EDTA, […]). The protein concentration was quantified with BCA kit (Pierce, ThermoFisher Scientific, USA). […] After incubation with the secondary antibody, proteins were detected by enhanced chemiluminescence (Glarity^TM Western ECL Substrate, Bio-Rad, USA) and the signals were recorded and quantified with Tanon-Image Software (Shanghai, China). […]

HFD induced NASH mice = assay: HFD induced NASH (NAFLD) mice: weight gain, liver appearance; format: in vivo, mouse; details: JT003 500 μg kg−1 i.p. daily 4 weeks, vs HFD, in words
Method: Male C57BL/6J mice of 6–8 weeks of age (20–24 g) were used in these experiments including the NAFLD model and liver fibrosis model. The mice were purchased from Guangdong Medical Laboratory Animal Center and housed in standard isolator cages and maintained on a room temperature of 25 °C and a 12 h:12 h light/dark cycle. At the end of the experiments, mice were fasted 8 h prior to sacrifice. Liver tissue and/or epididymal adipose tissue were flash frozen in liquid nitrogen (with or without RNAlater (TransGen Biotech, China)) and stored at −80 °C for future use, or fixed in 10% paraformaldehyde for histological assays. Blood samples were obtained from the posterior venous plexus of the eyes of anesthetized mice, Blood was separated by centrifugation at 1000g for 15 min Serum was then stored at −80 °C. The ethical approval has been obtained from Animal Care and Use Committee of the Sun Yat-sen University. All animals were maintained in pathogen-free conditions and cared for in accordance with policies and certification of the Association for Assessment and Accreditation of Laboratory Animal Care International (AAALAC International).
The NASH model was conducted with feeding a HFD for 16 weeks combine with a MCD diet (Methionine/Choline Deficient Diet, Medicience, China) in the last 4 weeks. […]

HFD + MCD diet NASH mice = assay: HFD combined with MCD diet NASH mice: weight gain, HE steatosis area; format: in vivo, mouse; details: HFD 16 weeks + MCD diet last 4 weeks; compared with ADP355; in words
Method: The NASH model was conducted with feeding a HFD for 16 weeks combine with a MCD diet (Methionine/Choline Deficient Diet, Medicience, China) in the last 4 weeks. Mice administered a MCS diet (Methionine/Choline Sufficient Diet, Medicience, China) serves as control group. NAFLD or NASH mice treated with JT003 for 4 weeks were used to evaluate the pharmacological effects (n = 6; 500 μg kg^−1; daily intraperitoneal injection). Food and water were provided ad libitum. The body weight of mice was examined every 3 days. The diet was renewed every 7 days. JT003 was diluted in PBS.
The levels of TG and HYP in liver tissue were detected with certain commercial assay kit (Nanjing Jiancheng Bioengineering Institute, China). Formalin-fixed liver tissues were embedded in paraffin, sectioned into 5 μm slices. After deparaffinization and rehydration of the section slices, they were stained with Haematoxylin and Eosin or Periodic Acid-Schiff. For the detection of liver collagen content, Sirius Red staining for collagen was performed. […] The cryostat-cut slices were stained with freshly prepared Oil Red O working solution for 7 min Two independent experimenters who were blinded to the treatment evaluated the staining slides and analyzed the score for steatosis, glucogen accumulation and collagen proliferation area.

[2] = system: AdipoR1 and AdipoR2 in LX2 cells; assay: RNA interference (AdipoR1/AdipoR2 siRNA) in LX2: PPARα, PPARγ mRNA and protein; format: cell-based, human; details: JT003 48 h, in words
Method: AdipoR1 and AdipoR2 siRNA as well as mock siRNA were chemically synthesized (GenePharma, China) and transfected into 60–70% confluent HepG2 and LX2 cells using Lipofectamine 3000 (ThermoFisher Scientific, USA). Dilution of siRNA and Lipofectamine 3000 reagents as well as the transfection of cells were performed following the manufacturer’s protocol. For HepG2 cell model, 5E5 cells were plated in 6-well plates and transfected with 5 μL of 20 μM stock siRNA. At 48 h following transfection, the cells were processed for 0.25 mM PA and/or 200 μM JT003 treated for another 24 h. BSA was used as the negative control. […]
Liver total RNA was extracted by using Trizol reagent following the manufacture’s instruction (TransGen Biotech, China). The concentration of RNA was measured by Nanodrop 2000 (ThermoFisher Scientific, USA). cDNA was transcribed from 10ug total RNA with First Strand cDNA synthesis Super Mix (TransGen Biotech, China). […] Reference gene β-actin was used for data normalization. mRNA expression was analyzed with specific primers listed in Supplementary Table 2.
Total protein was isolated from cells or liver samples using RIPA lysis buffer (50.0 mM Tris-HCl (pH = 8.0), 150.0 mM NaCl, 0.02% NaN3, 0.1% SDS, 1% NP-40, 0.5% deoxysodium cholate, 1 mM EDTA, […]). The protein concentration was quantified with BCA kit (Pierce, ThermoFisher Scientific, USA). […]

## CCC[C@H](NC(=O)[C@@H]1CCCN1)C(=O)N[C@@H](CC(C)C)C(=O)N[C@@H](Cc1ccc(O)cc1)C(=O)N[C@@H](Cc1ccc(O)cc1)C(=O)N[C@@H](Cc1ccccc1)C(=O)N[C@@H](C)C(N)=O [JT003] (H-P[Nva]LYYFA-NH2)
[1]
  expression level of αSMA in LX2 cells: significantly decrease; also recorded: showed the best performance in inhibiting fibroblast formation
HFD induced NASH mice
  weight gain: significantly reduced the weight gain
HFD + MCD diet NASH mice
  lipid accumulation in HFD combine with MCD diet NASH mouse model: inhibited lipid accumulation significantly with a 20 times lower dosage
[2]
  effect of AdipoR1 and AdipoR2 siRNA on PPARα level induced by JT003: reduced the increase of the PPARα level induced by JT003
